The term Kd denotes the equilibrium constant for the complex coming apart. A high value points to a looser complex.

Positions of bridges follow the written chain, without caps; N, C: chain ends. Non-standard residues stand in square brackets, D forms with d. Residues, ends and D or L forms follow the SMILES beside them. *: point of attachment. FITC = O=C1OC2(c3ccc(O)cc3Oc3cc(O)ccc32)c2ccc(NC(=S)*)cc21; R8 = C=CCCCCCC[C@@](C)(N)C(=O)O; S5 = C=CCCC[C@](C)(N)C(=O)O; AEEA = NCCOCCOCC(=O)O

This note sets out measurements from article PMC8682738, “Constrained peptides mimic a viral suppressor of RNA silencing” (Nucleic Acids Research, 2021).

The target of data set [1] is pal-RNA duplex. The data set is described as follows: ITC of N-terminally acetylated peptides with pal-RNA duplex. Format: binding. Conditions: for fold increased affinity compared to linear peptide wt33: unlabeled analogs, pal-RNA. Here is the method:
Isothermal titration calorimetry (ITC) was conducted using a MicroCal VP-ITC (Malvern Panalytical). Before measurement, oligonucleotide and peptide samples were dissolved in PBS and degassed using a ThermoVac (Malvern Panalytical) and heated to 30°C. N-terminally acetylated peptides (c = 3–12 μM) were then transferred into the sample cell and oligonucleotides (c = 12–72 μM) were transferred into the syringe. 35 Injections per measurement were performed at 30°C (8 μl injection volume, 2 s injection time, 180 s spacing, high feedback mode) with an initial delay of 60 s and a stirring speed of 307 rpm. Measurements were performed in triplicate. Using the MicroCal LLC ITC software (Origin; OriginLab Corporation), the heat associated with each injection was calculated by integrating the area under the curve in microcalories per second [μca/s] versus time [min] for each injection and then normalized to concentration. A ‘single set of identical binding sites’ model was used to fit the binding curves from which thermodynamic binding parameters (ΔG, ΔH, ΔS, N and Kd) were obtained.

In data set [2] the target is proteinase K (Parengyodontium album, UniProt P06873). The data set is described as follows: Protease stability assay. As to conditions: for Half-life (t1/2): proteinase K 10 μg·ml^−1, fluorescein-labeled peptide 50 μM, 10 mM Tris pH 8.0, 150 mM NaCl, room temperature, HPLC absorbance 210 nm, exponential decay fit. Format: in vitro ADME.
Data set [3] concerns pre-miR-21. The data set is described as follows: Pull-down of pre-miR-21 from K562 cells. Format: cell-based, human. Conditions: biotinylated peptide 10 μM, streptavidin beads, qRT-PCR, triplicate. As for the experimental part: 2 × 10^6 K562 cells were incubated with N-terminally biotinylated peptides (c(peptide) = 10 μM, t = 2.5 h) for uptake on a rotating wheel at 37°C. The cells were extensively washed in PBS and lysed in lysis buffer (25 mM HEPES, pH 7.5, 150 mM NaCl, 0.05% IGEPAL CA-630, 1 mM EDTA) supplemented with 0.5 U/μl RNAse inhibitor (Superase-in, ThermoFisher). The lysate was cleared by centrifugation at 21 000 g at 4°C, an aliquot of the supernatant was removed and re-suspended in Trizol, while the remaining was incubated with streptavidin-coupled magnetic beads (Dynabeads M280, ThermoFisher) on a rotating wheel (2 h, 4°C). After magnetic separation and washing (3× in lysis buffer), the beads were re-suspended in 20 μl lysis buffer, re-suspended in Trizol (ThermoFisher), and 400 ng t-RNA was added per sample as a carrier. RNA was extracted from Trizol using the standard protocol and the qRT-PCR was performed according to a previously published protocol ([62]) using the primers h-miR21-3p-FW ([…]), h-miR21-3p-RV ([…]), h-miR21-5p-FW ([…]), h-miR21-5p-RV ([…]) in a CFX96 real-time machine (Bio-Rad). The relative enrichment was calculated as a ratio of copies in the immunoprecipitate over input normalized to the enrichment of the control peptide D1.

Data set [4] has as its system pre-miR-21. Kind of data set: EMSA with pre-miR-21. Format: binding. As to conditions: fluorescein-labeled peptide 6 μM, pre-miR-21 3 μM. Here is the method:
Electrophoretic mobility shift assays (EMSAs) were performed using a Bio-Rad Mini-Protean gel system paired with a direct current (DC) power source (PowerPac™ HC, Bio-Rad). Typically, 6 μl solutions containing ds RNA (c = 3 μM) and fluorescein-labeled peptide (c = 6 μM) were incubated in binding buffer (10 mM Tris (pH 8.0), 0.5 mM EDTA, 12.5% glycerol and 150 mM KCl) at 4°C for 1 h. After incubation, bound RNA was resolved from peptide-free RNA using 10% non-denaturing polyacrylamide gels at 120 V in running buffer (25 mM Tris (pH 8.0), 200 mM glycine, 20 mM NaCl) at 4°C for 1 h. Visualization of fluorescent gel-bound species was conducted using a Typhoon Trio + fluorescence scanner (GE Healthcare Life Sciences). For nucleic acid visualization, gels were stained using 2 μl of SYBR™ gold nucleic acid gel dye (Molecular Probes) in 20 ml of TAE buffer (40 mM Tris, 1 mM EDTA, 20 mM acetic acid) for 45 min at RT before being visualized using a FluorChem™ gel documentation system (Alpha Innotech). To assess B3 binding to different ds RNA sequences (Supplementary Figure S20), 6 μl solutions containing hairpin RNA (c = 1 μM) and fluorescein-labeled B3 (c = 2 μM) were incubated in binding buffer (TAE and 10% glycerol) at RT for 1 h, and then resolved using 15% non-denaturing polyacrylamide gels (acrylamide/bis-acrylamide (19:1) in TAE) at 150 V in running buffer (TAE) at 4°C for 1.5 h. […]
In general terms: In EMSA bound probe runs differently from free probe, usually more slowly.

The mark [5] stands for this setting: N-terminally acetylated peptide, PBS pH 7.4, 30°C, single set of identical binding sites model, triplicate, errors 1σ.

Sequence of proteinase K (P06873 106-384): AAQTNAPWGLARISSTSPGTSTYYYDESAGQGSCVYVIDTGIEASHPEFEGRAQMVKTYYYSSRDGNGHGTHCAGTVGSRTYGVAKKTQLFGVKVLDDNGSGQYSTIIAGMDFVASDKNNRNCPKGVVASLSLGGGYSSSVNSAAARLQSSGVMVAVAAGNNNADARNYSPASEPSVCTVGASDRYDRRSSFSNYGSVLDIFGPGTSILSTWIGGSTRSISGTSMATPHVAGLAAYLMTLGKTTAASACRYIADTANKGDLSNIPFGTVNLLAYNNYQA

In the case of `CC(C)C[C@@H]1NC(=O)[C@@](C)(NC(=O)[C@H](CO)NC(=O)[C@H](CCCNC(=N)N)NC(=O)[C@H](CCCNC(=N)N)NC(=O)[C@H](CCC(N)=O)NC(=O)[C@H](CCC(=O)O)NC(=O)[C@H](CO)NC(=O)[C@@H]2CCCN2C(=O)[C@H](CO)NC(=O)[C@H](CCCCN)NC(=O)[C@H](Cc2c[nH]cn2)NC(=O)CNC(=O)[C@H](CCCNC(=N)N)NC(=O)[C@H](CCC(=O)O)NC(=O)[C@H](CCCCN)NC(=O)[C@H](CCCNC(=N)N)NC(=O)[C@H](CC(N)=O)NC(=O)[C@]2(C)CCCC=CCCCCCC[C@@](C)(NC(=O)[C@H](CCC(N)=O)NC(=O)[C@H](CCCCN)NC(=O)[C@H](CCCCN)NC(=O)COCCOCCNC(=S)Nc3ccc4c(c3)C(=O)OC43c4ccc(O)cc4Oc4cc(O)ccc43)C(=O)N[C@@H](CCC(N)=O)C(=O)N[C@@H](CCCNC(=N)N)C(=O)N[C@@H](CCCCN)C(=O)N[C@@H](CCCNC(=N)N)C(=O)N[C@@H](Cc3c[nH]cn3)C(=O)N[C@@H](CCCCN)C(=O)N2)CCCC=CCCC[C@@](C)(C(=O)N[C@@H](CCCNC(=N)N)C(N)=O)NC(=O)[C@H](Cc2c[nH]cn2)NC(=O)[C@H](Cc2c[nH]c3ccccc23)NC1=O` [C1] ({FITC-AEEA}-KKQ[R8]QRKRHK[S5]NRKERGHKSPSEQRRS[S5]LWH[S5]R-NH2; staple 4-11, 28-32), the Kd in data set [1] (setting [5]) is 180 nM. Also, in data set [1], the “fold increased affinity compared to linear peptide wt33” value is listed as 7 fold. In data set [2], the “Half-life (t1/2)” value was found to be 10.6 h. Besides, the “fold increased stability compared to wt33” value in data set [2] (proteinase K, fluorescein-labeled peptides) was 265 fold. Moreover, in data set [3], the “enrichment of pre-miR-21 relative to control peptide D1” value is “did not show detectable pre-miR-21 enrichment”. The “binding to pre-miR-21 in EMSA” value in data set [4] was “indicated pre–miRNA-binding”.

For the molecule `CC(C)C[C@H](NC(=O)[C@]1(C)CCCC=CCCC[C@](C)(NC(=O)[C@H](CCC(=O)O)NC(=O)[C@H](CO)NC(=O)[C@@H]2CCCN2C(=O)[C@H](CO)NC(=O)[C@H](CCCCN)NC(=O)[C@H](Cc2c[nH]cn2)NC(=O)CNC(=O)[C@H](CCCNC(=N)N)NC(=O)[C@]2(C)CCCC=CCCC[C@](C)(NC(=O)[C@H](CCCCN)NC(=O)[C@H](Cc3c[nH]cn3)NC(=O)[C@H](CCCNC(=N)N)NC(=O)[C@H](CCCCN)NC(=O)[C@H](CCCNC(=N)N)NC(=O)[C@H](CCC(N)=O)NC(=O)[C@H](C)NC(=O)[C@H](CCC(N)=O)NC(=O)[C@H](CCCCN)NC(=O)[C@H](CCCCN)NC(=O)COCCOCCNC(=S)Nc3ccc4c(c3)C(=O)OC43c4ccc(O)cc4Oc4cc(O)ccc43)C(=O)N[C@@H](CC(N)=O)C(=O)N[C@@H](CCCNC(=N)N)C(=O)N[C@@H](CCCCN)C(=O)N2)C(=O)N[C@@H](CCCNC(=N)N)C(=O)N[C@@H](CCCNC(=N)N)C(=O)N[C@@H](CO)C(=O)N1)C(=O)N[C@@H](Cc1c[nH]c2ccccc12)C(=O)N[C@@H](Cc1c[nH]cn1)C(=O)N[C@@H](C)C(=O)N[C@@H](CCCNC(=N)N)C(N)=O` [B3] ({FITC-AEEA}-KKQAQRKRHK[S5]NRK[S5]RGHKSPSE[S5]RRS[S5]LWHAR-NH2; staple 11-15, 24-28), the Kd in data set [1] (setting [5]) is 70 nM; in data set [1] (pal-RNA duplex), 70 ± 1 nM. Further, the “fold increased affinity compared to linear peptide wt33” value in data set [1] is 17 fold. For the same molecule, the “Half-life (t1/2)” value in data set [2] was 6.18 h. For the same molecule, in data set [3], the “enrichment of pre-miR-21 relative to control peptide D1” value came to 4 fold. In data set [4], the “binding to pre-miR-21 in EMSA” value is “indicated pre–miRNA-binding”.

With `CC(C)C[C@@H]1NC(=O)[C@H](CCC(=O)O)NC(=O)[C@H](CO)NC(=O)[C@@](C)(NC(=O)[C@H](CCCNC(=N)N)NC(=O)[C@H](CCC(N)=O)NC(=O)[C@H](CCC(=O)O)NC(=O)[C@H](CO)NC(=O)[C@@H]2CCCN2C(=O)[C@H](CO)NC(=O)[C@H](CCCCN)NC(=O)[C@H](Cc2c[nH]cn2)NC(=O)[C@]2(C)CCCC=CCCCCCC[C@@](C)(NC(=O)[C@H](Cc3c[nH]cn3)NC(=O)[C@H](CCCNC(=N)N)NC(=O)[C@H](CCCCN)NC(=O)[C@H](CCCNC(=N)N)NC(=O)[C@H](CCC(N)=O)NC(=O)[C@H](C)NC(=O)[C@H](CCC(N)=O)NC(=O)[C@H](CCCCN)NC(=O)[C@H](CCCCN)NC(=O)COCCOCCNC(=S)Nc3ccc4c(c3)C(=O)OC43c4ccc(O)cc4Oc4cc(O)ccc43)C(=O)N[C@@H](CC(C)C)C(=O)N[C@@H](CC(N)=O)C(=O)N[C@@H](CCCNC(=N)N)C(=O)N[C@@H](CCCCN)C(=O)N[C@@H](CCC(=O)O)C(=O)N[C@@H](CCCNC(=N)N)C(=O)N2)CCCC=CCCC[C@@](C)(C(=O)N[C@@H](Cc2c[nH]cn2)C(=O)N[C@@H](C)C(=O)N[C@@H](CCCNC(=N)N)C(N)=O)NC1=O` [D1] ({FITC-AEEA}-KKQAQRKRH[R8]LNRKER[S5]HKSPSEQR[S5]SEL[S5]HAR-NH2; staple 10-17, 26-30), in data set [2], the “Half-life (t1/2)” value came out at 4.65 h.
